In a melting point compilation (Tetko et al.; mined from patent text by program, amines drawn as free bases though some values may be those of a salt):

SMILES | melting point [°C]
CC(C)CC1(C(CCNC(=O)c2ccc(F)c(F)c2)C(=O)NO)CCN(CCc2ccccc2)C1=O (stereo unspecified) | 132 to 134
O=c1cc(-c2ccccc2SCc2ccccc2)[nH]c2ccc(Cl)cc12 | 198 to 202
COc1cccc2c1cc(C)n2Cc1ccccc1 | 96 to 116
CCc1nc2c(N)nc(C)c(C)c2n1Cc1cc(-c2ccc(F)cc2)no1 | 255 to 256
Cc1ccc(N=c2sc3ncccc3c(=O)n2C)cc1 | 144
O=C(O)c1cccc2nc(C(F)(F)C(F)(F)C(F)(F)F)n(Cc3ccccc3Cl)c12 | 213 to 214
COCCNc1ccc2ncnc(Nc3cccc(C)c3)c2c1 | 163 to 167
CCOC(=O)/C=C/C=C/c1cccc(-c2c(CC(=O)Nc3ccc(F)cc3C(F)(F)F)c(=O)oc3cc(Cl)c(C)cc23)c1 | 216 to 218
O=C1c2ccccc2C(=O)N1CC(=O)N1c2ccccc2N(Cc2cccc(OCc3ccccc3)c2)C(=O)[C@H]2CCC[C@H]21 (relative stereo) | 196 to 198
CCCCCCCCCCCCc1nnn(C(C(=O)O)C(C)C)n1 (stereo unspecified) | 39 to 42
CCCC[C@H]1CC[C@H](c2ccc(-c3ccc(CCc4ccc(F)cc4)cc3)c(F)c2)CC1 | 68
CCCc1c(OCCOCCOCCOc2ccc3ccc(OCC(=O)O)cc3c2C(C)=O)ccc(C(C)=O)c1O | 110 to 111
O=C(COc1cccc(CCNC(=O)OCc2ccccc2)c1)Nc1nnn[nH]1 | 164 to 167
CC(C)(C)OC(=O)N1CCn2c(Br)c(-c3cccc(F)c3)c(C(N)=O)c2C1 | 168 to 174
COc1cc2c(cc1C(F)(F)F)N(C(=O)Nc1ccc3c(ccn3Cc3ccncc3)c1)CC2 | 215 to 218
C=CCC12CCC(c3ccccc31)c1ccccc12 | 42 to 43
CCC1Oc2ccc(CN3CCN(c4ccncc4)CC3)cc2NC1=O (stereo unspecified) | 113 to 128
c1ccc(COc2cc(OCC3CCCCC3)ccc2CNc2ccncc2)cc1 | 131 to 132
CN1CCN(c2cccc3c2C[C@H](NC(=O)c2ccccc2OS(C)(=O)=O)CC3)CC1 | 144 to 145
CCOC(=O)C=CC=Cc1cn(-c2cccnc2)c2ccccc12 | 112 to 113
CCOC(=O)c1cn(-c2cnc3ccccc3c2)cn1 | 170 to 171
S=C1c2cccnc2N(c2ccccc2)C2=NCCN12 | 293 to 296
COc1cc(C2=CCN(S(=O)(=O)C(C)(C)C(=O)NO)CC2)ccc1-c1ccccc1 | 156 to 158
CN(C)C1CC2=CNC=C3C=C(C(N)=O)OCC1=C32 (stereo unspecified) | 182 to 183
O=C1N(Cc2cnc(O)nc2)c2ccccc2C12COc1cc3c(cc12)OCCO3 (stereo unspecified) | > 250
CCc1c(C(=O)Cl)cnn1-c1ccc(Cl)cc1 | 105 to 107

SMILES | melting point [°C]
CC1(C)[C@H](Cl)CC[C@]2(CI)OC(=O)C[C@H]12 | 127 to 128
O=C1CCC(C(=O)O)(c2cccc3ccccc23)CC1 | 174 to 177
COc1ccc(-c2c[nH]c(S)n2)cc1 | 204
CN(C)CCCNC(=O)N1C(=O)Cc2cc(Cl)ccc21 | 84 to 85
Nc1ncc(-c2ccc(=O)[nH]n2)c(-c2ccccc2)n1 | > 280
O=C(Nc1ccc(O)cc1)C1CCCCC12OCCO2 (stereo unspecified) | 173 to 174
Cc1ccc2c(c1)Nc1ccccc1N=C2N1CCN[C@@H](CCc2ccccc2)C1 | 64 to 80
NC(=S)NN=C(CNC(=O)c1ccccc1)c1ccccc1 | 171 to 172
CC(=O)N[C@@H](Cc1ccccc1)C[C@H](O)[C@H](Cc1ccccc1)N(Cc1ccccc1)Cc1ccccc1 | 84 to 86
Cc1ccc(Cl)c(C2CC(=O)c3c(C)ccnc3C2)c1 (stereo unspecified) | 123 to 124
COc1ccc(C(=O)NCCCCCCCNC(=O)c2ccc(OC)cc2)cc1 | 157 to 159
COc1ccc2cc(-c3ccc(Br)cc3)[nH]c(=O)c2c1 | > 250
COc1ccc(NC(=O)C2=C(O)c3ccccc3S(=O)(=O)N2C)c(=O)cc1 | 251 to 253
NC1=NN(c2ccc3ccccc3c2)CC1 | 190 to 191
O=C(CCCCC(=O)Oc1ccc(N=Nc2ccccc2)cc1)Oc1ccc(N=Nc2ccccc2)cc1 | 176 to 177
CSc1nc(-c2cc(NC(=O)c3ccc(C)c(F)c3)ccc2C)c2c(n1)N(c1c(F)cccc1F)C(=O)NC2 | 167 to 173
Cc1ccc(CNc2c3c(nc4ccccc24)CCCC3O)cc1 (stereo unspecified) | 176 to 178
CCN(CC)C(=O)C(C)(C)Oc1ccc(-c2ccc(N3CCCCC3)cc2)cc1 | 100 to 102
CNC(=S)Nc1ccc(C)cn1 | 161
COC(=O)[C@H]1CC[C@@H](c2c(-c3ccccc3)n(C)c3ccccc32)CC1 | 141 to 142
CCOC(=O)C1Oc2cc(C(=O)c3ccnn3C)c(Cl)c(Cl)c2O1 (stereo unspecified) | 124 to 126
CC(C)n1nc(-c2sc(C(=O)N3CCCCC3)nc2-c2ccccc2)ccc1=O | 111 to 112
CCOC(=O)c1cn2c(cc(OC(C)C)c3ccccc32)n1 | 127 to 129
CCCCn1cc(-c2nnnn2C)c(=O)c2ccccc21 | 100 to 105
COc1ccc(C(C)(C)C)cc1C(=O)c1cc([N+](=O)[O-])ccc1Cl | 136 to 139
CCC(=C(c1ccc(I)cc1)c1ccc(OCCCCCl)cc1)c1ccccc1 | 85 to 87

SMILES | melting point [°C]
NCCCCCCCCO | 48 to 53
CCOC(=O)/C=C/c1ccc(OCCc2nc(-c3cccc(C)c3)oc2C)cc1 | 90 to 91
COC(C)(C)CN1CCC(CNC(=O)c2cc(Cl)c(N)n3cc(C)nc23)CC1 | 211
COc1ccc(CCCC(CCc2ccc(OC)cc2)C(=O)O)cc1 (stereo unspecified) | 91 to 94
COc1ccc(OCC(O)CN2CCC(c3noc4cc(F)ccc34)CC2)cc1 (stereo unspecified) | 134 to 135
O=CC=C(c1ccccc1F)c1ccccc1F | 75 to 77
C#CCOc1cccc(C)c1S(N)(=O)=O | 129
O=Cc1cccc(/C=C/c2ccc3ccc(Cl)cc3n2)c1 | 146 to 150
N#Cc1cccc(-c2cnn(-c3ccccn3)c2)c1 | 160 to 161
CC(CCCCC(=O)O)C1CCC2C3CCC4CC(O)CCC4(C)C3CC(O)C12C (stereo unspecified) | 191 to 193
CS(=O)(=O)c1ccc(-c2cnn(-c3ccc(F)c(Cl)c3)c(=O)c2C2CCCCC2)cc1 | 180 to 181
COc1cc(OCc2ccccn2)ccc1/C=C/c1cc(/C=C/c2cc([N+](=O)[O-])c3cc[nH]c3c2)[nH]n1 | 125 to 131
C(=Cc1ccc(-c2ccc(OCCCN3CCCCC3)cc2)cc1)CN1CCCCC1 | 100 to 105
CC1CCCC=C1c1ccc(C(=O)O)cc1 (stereo unspecified) | 146 to 147
CS(=O)(=O)NC1Cc2ccc(C(=O)CCCCCl)cc2C1 (stereo unspecified) | 71 to 72
Oc1nccc2cccnc12 | 236 to 239
CC(=O)C1=C(C)NC2=C(C(=O)CCC2)C1c1cccc([N+](=O)[O-])c1 (stereo unspecified) | > 250
CCOC(=O)COc1ccc(C(=O)Nc2cccc(Cl)c2Cl)cc1 | 126 to 129
O=C1c2ccccc2CCn2cccc21 | 54 to 55
Cn1ncc(C(=O)N2CCC2)c1C(=O)Nc1ccn2nc(-c3ccncc3)nc2c1 | > 250
OCCOCC(O)c1cccc2ccccc12 (stereo unspecified) | 91 to 92
COc1cc(C(C#N)O[Si](C)(C)C(C)(C)C)cc(OC)c1OC (stereo unspecified) | 43
CCOc1ncc(S(C)(=O)=O)cc1C(=O)O | 175 to 176
C=CCC1(C(C)(C)C(=O)O)C(=O)NC(=O)NC1=O | 202 to 203
NC(=O)Cc1cc(Oc2ccc3c(ccn3C(=O)Nc3ccc(CN4CCNCC4)c(C(F)(F)F)c3)c2)ncn1 | 173 to 180
N#CC(CCC(=O)O)(CC(=O)O)c1ccc(Cl)c(Cl)c1 (stereo unspecified) | 152

SMILES | melting point [°C]
Cc1onc(-c2ccc(Cl)cc2)c1CO | 94 to 95
CC1(C)CCC(=O)Nc2cc(Nc3ncc4cc5ccccc5n4n3)ccc21 | 230 to 240
CC1(C)C(Cl)C(=O)C1CC(Cl)(Cl)Cl (stereo unspecified) | 56 to 57
O=C1CCCCC1C(C[N+](=O)[O-])c1ccc(Cl)c(Cl)c1 (racemic) | 109 to 110
C[C@H]1C[C@@](O)(c2cccc(Sc3ccc4c(c3)CCC(=O)N4)c2)CCO1 | 180 to 181
CN(C)CC=CC(=O)Nc1cc2c(Nc3cc(Cl)c(Cl)cc3F)ncnc2cc1OCCOCCOCCOCCF | 119 to 120
CC(C)(Oc1ccc(CCC(=O)c2ccc(-c3ccc(C(F)(F)F)cc3)s2)cc1)C(=O)O | 154 to 155
COc1ccc(-c2cccc(OCc3ccccc3)c2)cc1 | 78.5 to 81
O=C(NOCC(O)CN1CCCCC1)c1cccc2ccccc12 (stereo unspecified) | 104 to 107
N#CCNC(=O)COc1ccc(Cl)cc1Cl | 107 to 108
CC1=C(C(=O)OCCN(C)Cc2ccccc2)C(c2cccc3c(=O)c(C)c(-c4ccccc4)oc23)C(C(=O)OC(C)C)=C(C)N1 (stereo unspecified) | 170 to 172
O=C(c1cc(Cl)cc(Cl)c1)c1cc(Cl)cc(Cl)c1 | 157
OCC1(Oc2ccc3c(c2)c(-c2cc4cccnc4[nH]2)cn3C2(CO)CCC2)CCC1 | 165 to 166
O=S1(=O)NCN(C2CCCCCC2)c2cc(Cl)c(Cl)cc21 | 191 to 192
COC(=O)c1cc(C)sc1S(N)(=O)=O | 137 to 138
O=C(O)Cc1cc(OCc2cccc(Oc3ccccc3)c2)ccc1Nc1c(Cl)cccc1Cl | 116 to 117
Oc1ccc2nc(SCCC(F)C(F)(F)Br)oc2c1 (stereo unspecified) | 64.6 to 67.6
Nc1c(N=O)c(=O)[nH]c(=O)n1Cc1ccc(Cl)cc1 | > 320
CC(C)C(=O)NCc1ccc2ccn(C3CCN(CCc4ccc(F)cc4)CC3)c2c1 | 97 to 98
C#CCN1CCCc2ccc(OC(=O)Nc3ccccc3OC)cc21 | 83
COc1ccc2ccc(N3C(=O)c4ccccc4C3OCC(=O)NCCN(C)C)nc2n1 (stereo unspecified) | 146
COc1cc(C=O)ccc1OCc1nc(N2CCCCC2)sc1C | 80 to 81
COC(=O)Nc1cc(Oc2ccc3c(ccn3C(=O)Nc3ccc(CN4CCN(C)CC4)c(C(F)(F)F)c3)c2)ncn1 | 138 to 140
